Data set [1] deals with Mus musculus. Kind of data set: Anticonvulsant activity in PTZ induced mouse model of seizure assessed as protection against seizure at 1 mmol/Kg, ip relative to control. The data set is classed as functional.
Data set [2] has as its system Mus musculus. In words: Anticonvulsant activity in MES induced mouse model of seizure assessed as protection against seizure at 1 mmol/Kg, ip relative to control. The data set is classed as functional.
A short description of data set [3]: Protective index, ratio of TD50 for toxicity in ip dosed mouse to ED50 for anticonvulsant activity in ip dosed mouse model of seizure. The data set is classed as organism-based. The settings on record: in vivo, read-out: Ratio TD50/ED50.
The nature of data set [4]: Therapeutic index, ratio of LD50 for toxicity in ip dosed mouse to ED50 for anticonvulsant activity in ip dosed mouse model of seizure. The format is organism-based. The settings on record: in vivo, read-out: TI.
Data set [5] has as its system Mus musculus. In words: Anticonvulsant activity in ip dosed mouse model of seizure. The data set is classed as functional.
Data set [6] can be described thus: Toxicity in ip dosed mouse. The format is organism-based. The following applies: in vivo.

Turning to `CC(=O)c1nnn(-c2nc(Cl)nc(Cl)n2)c1NCc1cc(F)c(F)c(F)c1`, the Activity is recorded as 75% in the data set with Mus musculus [1] and 67% in the data set with Mus musculus [2].
On to `CC(=O)c1nnn(-c2nc(Cl)nc(Cl)n2)c1NCc1ccccc1`, for which the Activity in the data set on Mus musculus [1] came out at 48%; in the data set on Mus musculus [2], 33%.
Regarding `CC(=O)c1nnn(-c2nc(Cl)nc(Cl)n2)c1NCc1ccc(F)cc1`, the selectivity ratio in data set [3] was 2.61; in data set [4] it was 3.35. Further, the Activity in the data set with Mus musculus [1] and with Mus musculus [2] was 100% each time. Moreover, the ED50 (as a rule, the midpoint of the dose-response relation) with Mus musculus [5] was 0.34 mmol/kg. Further, in data set [6], the TD50 – broadly, the dose at which the toxic effect under study appears in half of the subjects – was found to be 0.89 mmol/kg.
As to `CC(=O)c1nnn(-c2nc(Cl)nc(Cl)n2)c1NCc1ccc(Cl)cc1`, the values for the selectivity ratio in data set [3] and in data set [4] were 2.38 and 2.76, respectively. In addition, the Activity in the data set with Mus musculus [1] and in the data set on Mus musculus [2] was 100% each time. In the data set on Mus musculus [5], this compound yielded an ED50 of 0.39 mmol/kg. The TD50 in data set [6] was determined as 0.93 mmol/kg.
Take `CC(=O)c1nnn(-c2nc(Cl)nc(Cl)n2)c1NCc1cc(F)cc(F)c1`: the values for the selectivity ratio in data set [3] and in data set [4] were 2.1 and 2.21, respectively. Further, the values for the Activity with Mus musculus [1] and with Mus musculus [2] were 100% and 83%, respectively. Further, in the data set on Mus musculus [5], it took a dose of 0.46 mmol/kg to reach the 50% effect level (ED50). For the same compound, the TD50 in data set [6] is 0.97 mmol/kg.
Take `CC(=O)c1nnn(-c2nc(Cl)nc(Cl)n2)c1NCc1ccc([N+](=O)[O-])cc1`: the results for the selectivity ratio in data set [3] and in data set [4] were 3.07 and 4.14, respectively. Also, the Activity in the data set on Mus musculus [1] and in the data set with Mus musculus [2] was 100% throughout. Moreover, in the data set with Mus musculus [5], the ED50 amounted to 0.27 mmol/kg. The compound also showed a TD50 in data set [6] of 0.83 mmol/kg.
As for `CC(=O)c1nnn(-c2nc(Cl)nc(Cl)n2)c1NCc1ccc(C(F)(F)F)cc1`, the results for the selectivity ratio in data set [3] and in data set [4] were 3.76 and 5.61, respectively. The Activity with Mus musculus [1] and with Mus musculus [2] was 100% each time. For the same compound, the ED50 in the data set on Mus musculus [5] is 0.21 mmol/kg. The TD50 in data set [6] was determined as 0.79 mmol/kg.
Consider `CC(=O)c1nnn(-c2nc(Cl)nc(Cl)n2)c1NCc1ccc(C)cc1`, for which the figures for the Activity with Mus musculus [1] and in the data set with Mus musculus [2] were 39% and 25%, respectively.
For `COc1ccc(CNc2c(C(C)=O)nnn2-c2nc(Cl)nc(Cl)n2)cc1`, in that order: 25% and 10%.
On to `CC(=O)c1nnn(-c2nc(Cl)nc(Cl)n2)c1NCc1ccc(O)cc1`, for which the Activity in the data set on Mus musculus [1] came to 33%; in the data set with Mus musculus [2], 18%.
Turning to `Cc1ccccc1-n1c(C)nc2ccccc2c1=O` [METHAQUALONE], the results for the selectivity ratio in data set [3] and in data set [4] were 1.12 and 1.4, respectively. Further, the Activity with Mus musculus [1] and in the data set on Mus musculus [2] was 100% throughout. The ED50 in the data set with Mus musculus [5] came out at 1.46 mmol/kg. The same compound registered a TD50 in data set [6] of 1.64 mmol/kg.
As to `CCCC(CCC)C(=O)O` [VALPROIC ACID], the selectivity ratio in data set [3] was 2.08; in data set [4], 2.59. Further, the Activity with Mus musculus [1] and in the data set on Mus musculus [2] was 100% each time. For the same compound, the ED50 in the data set on Mus musculus [5] amounted to 4.61 mmol/kg. The compound also showed a TD50 in data set [6] of 9.63 mmol/kg.

Source of the values: ChEMBL document CHEMBL5150034, “Design, synthesis, molecular docking and pharmacological evaluation of novel triazine-based triazole derivatives as potential anticonvulsant agents” (Bioorg Med Chem Lett, 2022).
